Laboratory results published in patent US9433663B2, “Mobilization of hematopoietic stem cells” (Children's Hospital Medical Center, priority 2008, dated 2016).

Key:
[1] = test system: primitive human hematopoietic cells (CD45+CD34+CD38−); test: Example 7 mobilization of human HSC/Ps in NOD-SCID model; type: in vivo, NOD-SCID mice transplanted with CD34+ HCB cells; details: flow cytometry
Source text: The mobilization effects of CASIN on human HSC/Ps using an established preclinical in vivo mouse model are examined. […] This reconstituting population of human hematopoietic cells is operationally defined as SCID-repopulating cells (SRCs), and accordingly represents candidate human HSCs.
Primitive CD34+ human neonatal umbilical cord blood cells are transplanted into sublethally irradiated recipients. Around 10-week posttransplantation, human multilineage repopulating capacity of transplanted HSCs is examined using flow cytometry for surface markers representing human lymphoid (CD19, CD20), myeloid (CD15, CD33) and primitive (CD34, CD38) hematopoietic subsets. […] To further characterize the effect of CASIN on mobilization of primitive human HSC mobilization, progenitor potential is determined using functional clonogenic assays of hematopoietic colony-forming units (CFUs) derived from HPCs33. Numbers of CFUs are counted posinjection of CASIN treatment, in comparison with control medium and G-CSF administration.

[2] = test system: HSCs (IL7Ra^−Lin^−Sca-1^+c-Kit^+) in the BM; test: six-color FACS of BM HSPC compartments after treatment; type: in vivo; details: after CASIN injection, C57Bl/6 mice
Description: Whether CASIN administration can induce mobilization of HSC/Ps to peripheral blood of C57Bl/6 mice, mimicking the phenotype observed in Cdc42 conditional knockout mice, was evaluated. First of all, mobilization of hematopoietic progenitor cells was examined by CFU-C assays functionally (FIG. 3a). […] Secondarily, to further explore the ability of CASIN to mobilize LT-HSC which is crucial for long-term repopulation of the mobilized cells, serial transplantations were carried out, where 20 million PB from CASIN-mobilized C57Bl/6 mice was transplanted into primary recipient of NOD/SCID mice, and subsequent secondary and tertiary transplants were finished as well using prior BMs (FIG. 3c). Donor chimerisms were assessed by using H2K^b congenic marker which is positive for donors of C57Bl/6 strain and negative for recipients of NOD/SCID strain. […] Therefore, the studies show CASIN can efficiently mobilize colony-forming hematopoietic progenitors and LT-HSCs with self-renewal and multi-lineage differentiation capacity. […]
To immunophenotypically profile the multi-compartments of HSPCs in BM, FACS analysis of six-color staining was carried out as previously. […] The sub-compartments of HSC, LT-HSC, ST-HSC, and CLP were quantified accordingly.

Swiss 3T3 fibroblasts = test: actin cytoskeleton rearrangement in Swiss 3T3 fibroblasts; type: cell-based, murine; details: serum-starved Swiss 3T3 cells, in the presence of CASIN
Source text: To investigate the Cdc42-dependent cytoskeleton rearrangement, Swiss 3T3 fibroblasts were used since it was abundantly elaborated in Swiss 3T3 fibroblats that bradykinin induces actin filopodia formation through activating Cdc42, whereas PDGF activates Rac1 and induces Rac-mediated membrane lamellipoidia, and LPA responsible for RhoA activation, eliciting RhoA-medicated formation of actin stress fibers and focal adhesion assembly (Ridley, A. J. et al. Cell 70, 401-410 (1992); Ridley, A. J. et al. Cell 70, 389-399 (1992); Kozma, R. et al. Mol Cell Biol 15, 1942-1952 (1995)).
[…] cells were seeded in Dulbecco's modified Eagle's medium (DMEM) supplemented with 10% calf serum on glass coverslips at a density of 10^5 cells per well in 8-well chambers. 24 hrs after cell seeding, cells were starved in serum-free DMEM for 24 h in the presence or absence of 5 μM or 10 μM CASIN for the last 2 hrs. cells then were stimulated with 5 ng/ml PDGF, 40 ng/ml LPA, or 100 ng/ml bradykinin, then fixed for immunofluorescence analysis. Immunostaining of F-actin with Rhodamine conjugated-phalloidin (Invitrogen) was carried out as described previously (Shutes, A., et al. J Biol Chem 282, 35666-35678 (2007)).

LT-HSC = test: serial transplantation of CASIN-mobilized PB into NOD/SCID mice; type: in vivo
Description: Whether CASIN administration can induce mobilization of HSC/Ps to peripheral blood of C57Bl/6 mice, mimicking the phenotype observed in Cdc42 conditional knockout mice, was evaluated. First of all, mobilization of hematopoietic progenitor cells was examined by CFU-C assays functionally (FIG. 3a). […] Secondarily, to further explore the ability of CASIN to mobilize LT-HSC which is crucial for long-term repopulation of the mobilized cells, serial transplantations were carried out, where 20 million PB from CASIN-mobilized C57Bl/6 mice was transplanted into primary recipient of NOD/SCID mice, and subsequent secondary and tertiary transplants were finished as well using prior BMs (FIG. 3c). Donor chimerisms were assessed by using H2K^b congenic marker which is positive for donors of C57Bl/6 strain and negative for recipients of NOD/SCID strain. […] Therefore, the studies show CASIN can efficiently mobilize colony-forming hematopoietic progenitors and LT-HSCs with self-renewal and multi-lineage differentiation capacity. Thirdly, to further investigate the potential of CASIN to vacate the BM niche after mobilization, six-color staining of the BM cells was performed from C57Bl/6 mice with or without CASIN treatment followed by FACS analysis. […] Therefore, a transient decrease in BM and a concomitant increase in peripheral organs of HSCs would be beneficial to facilitating the subsequent HSC transplantation.
To functionally define the LT-HSC, serial transplantations of mobilized PB from C57Bl/6 mice into sublethally irradiated NOD/SCID mice were carried out. Briefly, 2×10^7 PB cells were harvested 40 hrs after CASIN mobilization, and subsequently transplanted to a sublethally irradiated primary recipient. Chimerisms of donor-derived cells in the BM and PB were monitored over time by FACS analysis of the congenic marker H2K^b. Subsequent secondary and tertiary transplantations were performed using prior BM cells, and monitored by FACS analysis as well.

Fancc−/− mice = test: Example 10 preparative regimen for BM transplantation in Fancc−/− mice; type: in vivo; details: preconditioning before BM transplantation
Description: Four preparative regimens before BM transplantation on Fancc−/− mice are used to evaluate the capacity of CASIN as a preconditioning agent: (1) Control group; (2) CY group: a single dose of 40 mg/kg CY intraperitoneally; (3) CASIN group: 2.5 mg/Kg; (4) combination of CASIN and CY: one injection of CASIN is given in combination with reduced doses of CY.
Fancc−/− mice are preconditioned with each of these four regimens, and 4×10^7 BM cells from congenic strain mice are transplanted into preconditioned mice by tail vein injection. Mice that underwent transplantation are bled every four weeks to monitor the chimerism of donor-derived cells in PB. And at 3 m, the mice are sacrificed to evaluate the engraftment of donor-derived cells in BM.

OCCNC1CCCc2c1[nH]c1ccc(-c3ccccc3)cc21 (stereo not drawn) [CASIN]
frequency and total number of primitive human hematopoietic cells (CD45+CD34+CD38−) in peripheral blood [1]: increases significantly
number of genotypic HSCs (IL7Ra^−Lin^−Sca-1^+c-Kit^+) in the BM [2]: decreased significantly
LPA-induced actin stress fiber formation (Swiss 3T3 fibroblasts): still induced their respective changes in actin reorganization
PDGF-induced lamellipodia formation (Swiss 3T3 fibroblasts): still induced their respective changes in actin reorganization
bradykinin-induced filopodia formation (Swiss 3T3 fibroblasts): suppressed completely
PB reconstitution of donor-derived cells in the primary recipient (LT-HSC; 1-3 mo post transplantation of PB from CASIN-mobilized mice): reconstituted considerable percentages of total PB
multi-lineage differentiation of engrafted donor cells (LT-HSC; BM and PB of the primary recipients): had undergone multi-lineage differentiations
engraftment of donor-derived cells in BM (LT-HSC; primary through tertiary transplantation): engraftment of donor-derived cells was detected
repopulation and engraftment of donor derived cells in PB and BM of Fancc−/− recipient mice (Fancc−/− mice): reasonable repopulation and engraftment of donor derived cells
